≈ marks a conversion by molar mass, not a printed value. Like-named read-outs stand apart in the source and are kept apart here.
Key:
Format in all cases: cell-based
Coryn. bovis 1810 = assay: antimicrobial activity (MIC), Table I; settings: Corynebacterium bovis; Coryn. bovis 1810; read-out: MIC
Staph. aureus 226 = assay: antimicrobial activity (MIC), Table II; settings: Staphylococcus aureus; Staph. aureus 226; read-out: MIC
E. coli K-12 R-5 = assay: antimicrobial activity (MIC), Table I; settings: Escherichia coli, K12R5; E. coli K-12 R-5; read-out: MIC
Staph. aureus ATCC 6538P = assay: antimicrobial activity (MIC), Table II; settings: Staphylococcus aureus, ATCC6538P; Staph. aureus ATCC 6538P; read-out: MIC
Sarcina lutea PCI 1001 = assay: antimicrobial activity (MIC), Table I; settings: Micrococcus luteus, PCI1001; Sarcina lutea PCI 1001; read-out: MIC
Pro. vulgaris OX-19 = assay: antimicrobial activity (MIC), Table I; settings: Proteus vulgaris, OX19
E. coli K-12 ML 1410 = assay: antimicrobial activity (MIC), Table I; settings: Escherichia coli, K12ML1410
Staph. aureus KC-11 = assay: antimicrobial activity (MIC), Table II; settings: Staphylococcus aureus, KC11; Staph. aureus KC-11; read-out: MIC
Staph. aureus 193 = assay: antimicrobial activity (MIC), Table I; settings: Staphylococcus aureus; Staph. aureus 193; read-out: MIC
E. coli K-12 LA 290 R 55 = assay: antimicrobial activity (MIC), Table I; settings: Escherichia coli
B. subtilis ATCC 6633 = assay: antimicrobial activity (MIC), Table II; settings: Bacillus subtilis, ATCC6633
[1] = test system: Staph. epidermidis IID 886; assay: antimicrobial activity (MIC), Table II; settings: Staphylococcus epidermidis, IID886
B. cereus = assay: antimicrobial activity (MIC), Table II; settings: Bacillus cereus
E. coli K-12 = assay: antimicrobial activity (MIC), Table I; settings: Escherichia coli, K12; E. coli K-12; read-out: MIC
Staph. aureus MS 9861 = assay: antimicrobial activity (MIC), Table I; settings: Staphylococcus aureus, MS9861; Staph. aureus MS 9861; read-out: MIC
[2] = test system: Shigella dysenteriae JS 11910; assay: antimicrobial activity (MIC), Table I; settings: JS11910
Sal. enteritidis 1891 = assay: antimicrobial activity (MIC), Table I; settings: Salmonella enterica; Sal. enteritidis 1891; read-out: MIC
Staph. aureus 209 P = assay: antimicrobial activity (MIC), Table I; settings: Staphylococcus aureus; Staph. aureus 209 P; read-out: MIC
Kleb. pneumoniae PCI 602 = assay: antimicrobial activity (MIC), Table I; settings: Klebsiella pneumoniae, PCI602; Kleb. pneumoniae PCI 602; read-out: MIC
B. subtilis NRRL B-558 = assay: antimicrobial activity (MIC), Table I; settings: Bacillus subtilis, NRRLB558; B. subtilis NRRL B-558; read-out: MIC
E. coli NIHJ = assay: antimicrobial activity (MIC), Table I; settings: Escherichia coli; E. coli NIHJ; read-out: MIC

`CC[C@H]1OC(=O)C[C@@H](O)[C@H](C)[C@@H](O[C@@H]2O[C@H](C)[C@@H](O[C@H]3C[C@@](C)(O)[C@@H](O)[C@H](C)O3)[C@H](N(C)C)[C@H]2O)[C@@H](CC=O)C[C@@H](C)C(=O)/C=C/C(C)=C/[C@@H]1CO[C@@H]1O[C@H](C)[C@@H](O)[C@@H](OC)[C@H]1OC` [Tylosin] gave an MIC (Coryn. bovis 1810) of 0.2 µg/mL (≈ 0.218 µM), an MIC (Staph. aureus 226) of 1.56 µg/mL (≈ 1.7 µM) and an MIC (E. coli K-12 R-5) of over 100 µg/mL. It also gave an MIC (Staph. aureus ATCC 6538P) of 1.56 µg/mL (≈ 1.7 µM), an MIC (Sarcina lutea PCI 1001) of under 0.2 µg/mL and an MIC (Pro. vulgaris OX-19) of over 100 µg/mL. The MIC (E. coli K-12 ML 1410) was over 100 µg/mL, the MIC (Staph. aureus KC-11) was 1.56 µg/mL (≈ 1.7 µM) and the MIC (Staph. aureus 193) was 0.78 µg/mL (≈ 0.851 µM). For the same molecule, the MIC (E. coli K-12 LA 290 R 55) was over 100 µg/mL, the MIC (B. subtilis ATCC 6633) was 0.78 µg/mL (≈ 0.851 µM) and the MIC [1] was 1.56 µg/mL (≈ 1.7 µM). For the same molecule, the MIC (B. cereus) was 0.78 µg/mL (≈ 0.851 µM) and the MIC (E. coli K-12) was over 100 µg/mL.
With `CCC1OC(=O)CC(O)C(C)C(OC2OC(C)C(O)C(N(C)C)C2O)C(CC=O)CC(C)C(=O)C=CC(C)=CC1CN1CCCCC1` (centres unmarked) [Example 13, 23-deoxy-23-piperidinomycaminosyl tylonolide] the MIC (Coryn. bovis 1810) was under 0.2 µg/mL, the MIC (Staph. aureus MS 9861) was 0.78 µg/mL (≈ 1.17 µM) and the MIC [2] was under 0.2 µg/mL. It also gave an MIC (E. coli K-12 R-5) of 1.56 µg/mL (≈ 2.35 µM), an MIC (Sarcina lutea PCI 1001) of under 0.2 µg/mL and an MIC (Sal. enteritidis 1891) of 0.78 µg/mL (≈ 1.17 µM). It also gave an MIC (Pro. vulgaris OX-19; Pro. vulgaris OX-19, read-out: MIC) of 1.56 µg/mL (≈ 2.35 µM), an MIC (E. coli K-12 ML 1410) of 3.12 µg/mL (≈ 4.69 µM) and an MIC (Staph. aureus 209 P) of 0.39 µg/mL (≈ 0.587 µM). The MIC (Staph. aureus 193) was 0.39 µg/mL (≈ 0.587 µM), the MIC (E. coli K-12 LA 290 R 55) was 1.56 µg/mL (≈ 2.35 µM) and the MIC (E. coli K-12) was 1.56 µg/mL (≈ 2.35 µM). It also gave an MIC (Kleb. pneumoniae PCI 602) of 0.39 µg/mL (≈ 0.587 µM), an MIC (B. subtilis NRRL B-558) of 0.39 µg/mL (≈ 0.587 µM) and an MIC (E. coli NIHJ) of 0.78 µg/mL (≈ 1.17 µM).
`CCC1OC(=O)CC(O)C(C)C(OC2OC(C)CC(N(C)C)C2O)C(CC=O)CC(C)C(=O)C=CC(C)=CC1CN1CCCCCCC1` (centres unmarked) [Example 19, 23,4'-dideoxy-23-heptamethyleneiminomycaminosyl tylonolide] showed an MIC (Coryn. bovis 1810) of under 0.2 µg/mL, an MIC (Staph. aureus MS 9861) of 0.78 µg/mL (≈ 1.15 µM) and an MIC [2] of under 0.2 µg/mL. The MIC (E. coli K-12 R-5) was 0.78 µg/mL (≈ 1.15 µM), the MIC (Sarcina lutea PCI 1001) was under 0.2 µg/mL and the MIC (Sal. enteritidis 1891) was under 0.2 µg/mL. For the same molecule, the MIC (Pro. vulgaris OX-19) was 0.39 µg/mL (≈ 0.576 µM), the MIC (E. coli K-12 ML 1410; E. coli K-12 ML 1410, read-out: MIC) was 0.78 µg/mL (≈ 1.15 µM) and the MIC (Staph. aureus 209 P) was under 0.2 µg/mL. It also gave an MIC (Staph. aureus 193) of 0.2 µg/mL (≈ 0.295 µM), an MIC (E. coli K-12 LA 290 R 55) of 0.39 µg/mL (≈ 0.576 µM) and an MIC (E. coli K-12) of 0.78 µg/mL (≈ 1.15 µM). For the same molecule, the MIC (Kleb. pneumoniae PCI 602) was 0.2 µg/mL (≈ 0.295 µM), the MIC (B. subtilis NRRL B-558) was 0.39 µg/mL (≈ 0.576 µM) and the MIC (E. coli NIHJ) was 0.39 µg/mL (≈ 0.576 µM).

— patent US4477443A, “Tylosin derivatives, their preparation and pharmaceutical compositions containing them” (Zaidan Hojin Biselbutsu Kagaku Kenkyu Kai (Microbial …, priority 1981, dated 1984)
